Measured values taken from patent US20090136460A1 (VANDERBILT UNIVERSITY, priority 2007, published 2009).
Where two headings read alike, the source gives them in different places.

Key:
A2B adenosine receptor [1] = target: T1, A2B adenosine receptor (Homo sapiens, UniProt P29275); details: [14] Feoktistov et al, 2001, transfected HEK 293 or HEL cells, radioligand [3H]ZM241685, cited from earlier work
T1 sequence (P29275 1-332): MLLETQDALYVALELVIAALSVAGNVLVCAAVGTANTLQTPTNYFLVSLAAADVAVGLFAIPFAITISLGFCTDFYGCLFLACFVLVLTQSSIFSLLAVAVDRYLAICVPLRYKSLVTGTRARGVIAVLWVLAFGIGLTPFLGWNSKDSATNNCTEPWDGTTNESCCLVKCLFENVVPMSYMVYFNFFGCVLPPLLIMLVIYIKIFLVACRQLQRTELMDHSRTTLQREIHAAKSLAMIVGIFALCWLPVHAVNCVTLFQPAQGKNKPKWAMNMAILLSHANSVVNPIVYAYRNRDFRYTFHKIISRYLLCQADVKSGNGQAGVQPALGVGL

A1 adenosine receptor [2] = target: T2, A1 adenosine receptor (Homo sapiens, UniProt P30542); details: [14] Feoktistov et al, 2001, transfected CHO cells, radioligand [3H]DPCPX, cited from earlier work
T2 sequence (P30542 1-326): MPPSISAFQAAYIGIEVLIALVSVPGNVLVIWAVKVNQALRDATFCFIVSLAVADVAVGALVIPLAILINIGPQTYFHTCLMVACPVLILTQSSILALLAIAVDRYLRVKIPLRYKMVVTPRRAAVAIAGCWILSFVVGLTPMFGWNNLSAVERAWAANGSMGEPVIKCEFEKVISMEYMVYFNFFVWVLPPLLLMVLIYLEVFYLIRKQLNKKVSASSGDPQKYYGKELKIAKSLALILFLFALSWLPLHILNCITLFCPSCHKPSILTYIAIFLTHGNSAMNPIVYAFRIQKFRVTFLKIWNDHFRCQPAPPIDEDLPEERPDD

A1 receptors [3] = target: T3, A1 receptors (Mus musculus, UniProt Q60612); assay: Inhibition of forskolin-stimulated cAMP accumulation in mouse eEPCs; details: for Affinity or potency at A1, mouse (m), current study, log / Affinity or potency (Ki, KD, KB, IC50 or EC50) at A1, mouse (m), current study: data from the current study (no reference); for Affinity or potency (Ki, KD, KB, IC50 or EC50) at A1, mouse (m), current study: 95% CI in parentheses
T3 sequence (Q60612 1-326): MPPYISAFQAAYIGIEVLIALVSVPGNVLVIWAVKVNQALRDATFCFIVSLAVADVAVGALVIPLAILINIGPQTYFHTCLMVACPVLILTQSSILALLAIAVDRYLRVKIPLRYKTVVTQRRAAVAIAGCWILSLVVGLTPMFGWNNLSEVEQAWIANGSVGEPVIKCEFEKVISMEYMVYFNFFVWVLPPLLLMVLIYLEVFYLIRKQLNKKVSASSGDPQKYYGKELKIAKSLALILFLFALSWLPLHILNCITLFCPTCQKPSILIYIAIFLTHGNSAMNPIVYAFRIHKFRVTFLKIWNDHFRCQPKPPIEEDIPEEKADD

A2B receptors = target: T4, A2B receptors (Mus musculus, UniProt Q60614); assay: NECA-stimulated cAMP accumulation in MCEC-1 cells
T4 sequence (Q60614 1-332): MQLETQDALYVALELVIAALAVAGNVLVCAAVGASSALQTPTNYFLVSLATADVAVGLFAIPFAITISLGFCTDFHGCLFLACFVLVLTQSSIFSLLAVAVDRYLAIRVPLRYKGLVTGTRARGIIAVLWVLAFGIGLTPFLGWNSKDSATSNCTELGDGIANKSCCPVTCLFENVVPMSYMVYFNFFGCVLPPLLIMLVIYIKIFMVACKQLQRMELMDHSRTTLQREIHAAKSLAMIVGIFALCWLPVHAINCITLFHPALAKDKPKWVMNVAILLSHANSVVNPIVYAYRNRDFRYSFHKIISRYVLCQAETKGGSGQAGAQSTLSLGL

A2A adenosine receptor [4] = target: A2A adenosine receptor (Homo sapiens, UniProt P29274); details: [14] Feoktistov et al, 2001, transfected CHO cells, radioligand [3H]NECA, cited from earlier work
[5] = system: eEPC adhesion to MCEC-1 cells; assay: eEPC adhesion to MCEC-1 cells under static conditions; format: cell-based, mouse
[6] = system: eEPC retention in isolated hearts; assay: eEPC retention in isolated mouse hearts (Langendorff perfusion)
Procedure: Isolated mouse heart model. Six male C57Bl/6 mice (Jackson Laboratory, Bar Harbor, Me.) at age of 6-8 weeks were used. The study was conducted in accordance with the Guide for the Care and Use of Laboratory Animals as adopted and promulgated by the U.S. National Institutes of Health. Hearts were rapidly removed from mice anesthetized with inhalation of isoflurane. The aorta was cannulated and connected to a Langendorff apparatus. […] After a 30 min stabilization period, hearts were perfused with 1.5 mmol/L FITC-conjugated Helix pomatia lectin (Sigma) for 10 min to label endothelial cells of perfused vessels followed by a 10 min washing period with KH buffer. […] After washing with KH buffer for 10 min to remove unbound eEPCs, hearts were dissected, and placed on a microscopic stage. Retention of eEPCs in hearts was analyzed by taking 10 random images of the left ventricle using epifluorescence microscopy (20× objective). Area of EPC-emitted fluorescence was measured using NIH ImageJ software and normalized to the area of vascular endothelium stained with FITC-lectin.

A1 adenosine receptor [7] = target: T5, A1 adenosine receptor (Mus musculus, UniProt Q60612); details: cited from earlier work; for Ki: read-out: Affinity or potency at A1, mouse (m)
T5 sequence (Q60612 1-326): T3 sequence (Q60612 1-326)

A2A adenosine receptor [8] = target: A2A adenosine receptor (Mus musculus, UniProt Q60613); details: [9] Kreckler et al. (2006), transfected HEK 293, radioligand [125I]ZM241385, cited from earlier work
A2B adenosine receptor [9] = target: T6, A2B adenosine receptor (Mus musculus, UniProt Q60614); details: [9] Kreckler et al. (2006), transfected HEK 293, radioligand [3H]MRS1754, cited from earlier work
T6 sequence (Q60614 1-332): T4 sequence (Q60614 1-332)

HMVEC-c cells = assay: cAMP accumulation in HMVEC-c cells; format: cell-based, human
Description: Primary cultures of human cardiac microvascular endothelial cells (HMVEC-c) were obtained from Cambrex (Walkersville, Md.), and cultured using EGM™-2 MV growth medium (Cambrex). HMVEC-c from passages 2 to 5 were used. Measurement of cAMP accumulation.

eEPCs = assay: cAMP accumulation in mouse eEPCs (forskolin, NECA)
A1 receptors [10] = target: T3, A1 receptors; assay: Inhibition of forskolin-induced cAMP accumulation in MCEC-1 cells
[11] = [6] Maemoto et al. (1997), brain cortex, radioligand [3H]DPCPX
[12] = [9] Kreckler et al. (2006), transfected HEK 293, radioligand [125I]I-AB-MECA

Chain of A2A adenosine receptor (Mus musculus, UniProt Q60613) (Q60613 whole entry): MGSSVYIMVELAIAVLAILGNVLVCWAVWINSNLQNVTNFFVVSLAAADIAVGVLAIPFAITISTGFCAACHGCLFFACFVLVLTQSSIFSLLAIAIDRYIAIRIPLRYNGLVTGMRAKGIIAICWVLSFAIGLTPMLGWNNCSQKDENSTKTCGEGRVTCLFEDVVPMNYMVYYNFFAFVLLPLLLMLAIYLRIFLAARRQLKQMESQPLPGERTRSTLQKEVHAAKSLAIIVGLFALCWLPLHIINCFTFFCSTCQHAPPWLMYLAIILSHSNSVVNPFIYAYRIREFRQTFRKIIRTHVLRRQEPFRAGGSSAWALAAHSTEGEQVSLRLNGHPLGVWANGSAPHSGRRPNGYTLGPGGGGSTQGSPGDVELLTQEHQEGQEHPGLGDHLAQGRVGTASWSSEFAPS
Chain of A2A adenosine receptor (Homo sapiens, UniProt P29274) (P29274 whole entry): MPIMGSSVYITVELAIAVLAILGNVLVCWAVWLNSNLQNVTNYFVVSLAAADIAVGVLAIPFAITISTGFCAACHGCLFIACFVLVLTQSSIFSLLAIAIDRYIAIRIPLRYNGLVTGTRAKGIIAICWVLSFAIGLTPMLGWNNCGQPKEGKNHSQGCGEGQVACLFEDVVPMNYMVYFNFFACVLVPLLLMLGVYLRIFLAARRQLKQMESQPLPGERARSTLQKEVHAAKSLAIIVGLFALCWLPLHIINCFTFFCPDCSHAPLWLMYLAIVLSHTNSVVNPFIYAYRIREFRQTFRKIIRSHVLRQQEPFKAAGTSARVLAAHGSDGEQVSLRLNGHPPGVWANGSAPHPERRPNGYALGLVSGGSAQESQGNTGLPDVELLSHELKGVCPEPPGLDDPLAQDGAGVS

## CC(C)Cn1c(=O)[nH]c(=O)c2[nH]c(N3CCCC3)nc21 [IPDX, 3-isobutyl-8-pyrrolidinoxanthine]
A2B adenosine receptor [1]
  Affinity or potency at A2B, human (h), log: −6.2 log mol/L
A2B adenosine receptor [1]; read-out: Affinity or potency at A2B, human (h)
  Ki: 625 nM
A1 adenosine receptor [2]
  Affinity or potency at A1, human (h), log: −4.6 log mol/L
A1 adenosine receptor [2]; read-out: Affinity or potency at A1, human (h)
  Ki: 24000 nM
A1 receptors [3]
  Affinity or potency at A1, mouse (m), current study, log: 24,870); −4.6 log mol/L
  Affinity or potency (Ki, KD, KB, IC50 or EC50) at A1, mouse (m), current study: m 20,000 (16,230- nmol/L
A2B receptors
  Kd: 603 nM
A2B receptors; NECA-induced cAMP accumulation in MCEC-1, simple competitive antagonism at A2B
  Schild analysis slope: 1.1
A2B receptors; data from the current study (no reference)
  Affinity or potency at A2B, mouse (m), current study, log: −6.2 log mol/L
A2B receptors; data from the current study (no reference), 95% CI in parentheses
  Affinity or potency (Ki, KD, KB, IC50 or EC50) at A2B, mouse (m), current study: 603 nM
A2A adenosine receptor [4]
  Affinity or potency at A2A, human (h), log: −4.4 log mol/L
A2A adenosine receptor [4]; read-out: Affinity or potency at A2A, human (h)
  Ki: 36000 nM
[5]; Mus musculus, read-out: IC50, inhibition of NECA-induced eEPC adhesion
  IC50: 1600 nM

## OC[C@H]1O[C@@H](n2cnc3c(O)ncnc32)[C@H](O)[C@@H]1O [inosine]
[6]; 100 μmol/L
  Effect on eEPC retention: no effect

## Pertussis toxin
A1 receptors [3]; eEPCs preincubated with pertussis toxin for 12 hours
  Effect on ability of CPA to inhibit forskolin-stimulated adenylate cyclase: completely abrogated
[5]; eEPCs preincubated with pertussis toxin 12 hours
  Effect on TNF-α-induced eEPC adhesion: no effect
[5]; eEPCs preincubated with pertussis toxin 12 hours, 10 μmol/L NECA
  Effect on stimulation of adhesion induced by NECA: significantly attenuated but did not completely block

## CCCn1c(=O)c2[nH]c(C3CCCC3)nc2n(CCC)c1=O [DPCPX, 8-cyclopentyl-1,3-dipropylxanthine]
A1 receptors [3]
  EC50: 1.5 nM
  Affinity or potency at A1, mouse (m), current study, log: −8.8 log mol/L
A1 adenosine receptor [7]; [11]
  Affinity or potency at A1, mouse (m), log: −9.3 log mol/L
  Ki: 0.4 nM
A1 adenosine receptor [7]; [12]
  Affinity or potency at A1, mouse (m), log: −8.8 log mol/L
  Ki: 1.5 nM
A2A adenosine receptor [8]
  Affinity or potency at A2A, mouse (m), log: −6.2 log mol/L
A2A adenosine receptor [8]; read-out: Affinity or potency at A2A, mouse (m)
  Ki: 598 nM
A2B adenosine receptor [9]
  Affinity or potency at A2B, mouse (m), log: −7.1 log mol/L
A2B adenosine receptor [9]; read-out: Affinity or potency at A2B, mouse (m)
  Ki: 86 nM

## Fucoidan
[5]; 10 μmol/L NECA
  Effect on NECA-dependent stimulation of eEPC adhesion: inhibited

## CCNC(=O)[C@H]1O[C@@H](n2cnc3c(N)nc(NCCc4ccc(CCC(=O)O)cc4)nc32)[C@H](O)[C@@H]1O [CGS21680, 4-((N-ethyl-5′-carbamoyladenos-2-yl)-aminoethyl)-phenyl-propionic acid]
HMVEC-c cells
  Effect on cAMP accumulation in HMVEC-c: no significant effect
A1 adenosine receptor [7]; [11]
  Affinity or potency at A1, mouse (m), log: 28,200); −4.85 [6] log mol/L
[6]; 3 nmol/L, compared with 10 μmol/L adenosine
  Effect on eEPC retention: considerably less effect
[5]; 30 minutes
  Effect on eEPC adhesion: virtually no effect

## C=C[C@@]1(C)CC(=O)[C@]2(O)[C@@]3(C)[C@@H](O)CCC(C)(C)[C@@H]3[C@H](O)[C@H](OC(C)=O)[C@@]2(C)O1 [Forskolin, forskolin]
eEPCs; Mus musculus, read-out: EC50, increase of cAMP levels in eEPCs
  EC50: 1100 nM
eEPCs; maximal increase from basal 4.3±0.7
  cAMP levels in eEPCs: 35±2 pmol per well

## OC[C@H]1O[C@@H](n2cnc3c(NC4CCCC4)ncnc32)[C@H](O)[C@@H]1O [CPA, N^6-cyclopentyladenosine]
A1 receptors [3]
  EC50: 1.3 nM
  Affinity or potency at A1, mouse (m), current study, log: −8.9 log mol/L
  Affinity or potency (Ki, KD, KB, IC50 or EC50) at A1, mouse (m), current study: 1.2 (0.6-2.4) nmol/L
A1 receptors [10]; MCEC-1, presumably stimulation of A2B receptors
  Concentrations at which inhibition was reversed: > 100 nmol/L
A1 receptors [10]; selective (low nanomolar) concentrations, 1 μmol/L forskolin
  Effect on forskolin-stimulated adenylate cyclase in MCEC-1: inhibited forskolin-stimulated adenylate cyclase
A1 adenosine receptor [7]; [11]
  Affinity or potency at A1, mouse (m), log: −8.5 log mol/L
  Ki: 3.3 nM
[5]; 10 nmol/L, 30 minutes, basal 4.5±0.3%
  eEPC adhesion: 7.4±0.6%
